From patent US20230066011A1, “PYRROLOPYRIMIDINE DERIVATIVE, AND PHARMACEUTICAL COMPOSITION FOR PREVENTING OR TREATING PROTEIN KINASE-RELATED DISEASE COMPRISING SAME AS ACTIVE INGREDIENT” (VORONOI CO., LTD., priority 2019, published 2023)

Key:
LRRK2 = LRRK2 (Homo sapiens, UniProt Q5S007); assay: LRRK2 enzyme inhibition, ADP-Glo kinase assay; format: biochemical; parameters: purchased Invitrogen PR8604B; details: ATP 10 μM
Summary of the method: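 Purified human LRRK2 (25 ng) with 10 μM ATP and 0.2 μg substrate in 40 mM Tris-HCl pH 7.4, 20 mM MgCl2, 0.5 mg/mL BSA, 50 μM DTT, 2 h at 25° C. ADP-Glo luminescence; 12-point compound series from 50 μM final; IC50 relative to solvent control.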

IL-6 = assay: Inhibition of LPS-induced IL-6 secretion of THP-1 monocytes (ELISA); format: cell-based, human; details: Homo sapiens, THP-1; compound 0.5 μM, LPS 500 ng/mL, 24 hours; read-out: THP1/IL6 (% inhib)
Description: (§1) To evaluate an inhibitory effect on cytokine secretion of monocytes, THP-1 cells (ATCC, #TIB-202) as a human-derived monocyte line were cultured in an RPMI-1640 (Hyclone, SH30027.01) medium supplemented with 10% fetal bovine serum (Hyclone, SH30084.03), 1% penicillin streptomycin (Welgene, LS202-02), and 50 μM 2-mercaptoethanol (Gibco, #21985023). In the test, the cells were seeded in a 48-well plate (SPL, #30048) at a density of 1.5 to 2×10^5 cells/250 μL per well, and cultured at 37° C. for 16 hours in a 5% CO2 incubator. Thereafter, the compound was diluted with DMSO so that the final concentration of the compound was 0.5 μM. Then, the cells were treated with the diluted compound before an hour of treatment with lipopolysaccharides (LPS) (Sigma, #L6529). After the treatment with the compound, the cells were treated with LPS so that the final concentration was 500 ng/mL. Then, a cell culture broth was collected after 24 hours of culture, and levels of cytokine IL-6 (R&D Systems, #D6050) and TNF-α (R&D Systems, #DTA00D) comprised in the culture broth were measured using respective ELISA kits. After an experiment was performed according to the manufacturer's guidelines, cell analysis was performed by measuring the optical density at 450 nm using a microplate reader.

human GST-DYRK1A = target: T1, human GST-DYRK1A (Homo sapiens, UniProt Q13627); assay: GST-DYRK1A enzyme inhibition, ADP-Glo kinase assay; format: biochemical; details: ATP 10 μM, GST-DYRK1A full length, read-out: DYRK1 IC50
T1 construct: purified human GST-DYRK1A (full length, Thermo Scientifics) enzyme; purchased Thermo Scientifics
Summary of the method: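 Full-length human GST-DYRK1A (10 ng) with 10 μM ATP and specific substrate in 40 mM Tris-HCl pH 7.4, 20 mM MgCl2, 0.5 mg/mL BSA, 50 μM DTT, 1 h at 25 °C. ADP formation read by ADP-Glo luminescence relative to solvent control; IC50 from three data sets.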

human GST-CLK1 = target: T2, human GST-CLK1 (Homo sapiens, UniProt P49759); assay: GST-CLK1 enzyme inhibition, ADP-Glo kinase assay; format: biochemical; details: ATP 10 μM, GST-CLK1 129-end
T2 construct: purified human GST-CLK1 (129-end, SignalChem) enzyme; purchased SignalChem
Summary of the method: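 Human GST-CLK1 (129-end, 3 ng) reacted with substrate and 10 μM ATP for 1 h at 25° C in 40 mM Tris-HCl pH 7.4, 20 mM MgCl2, 0.5 mg/mL BSA, 50 μM DTT. ADP-Glo luminescence was normalised to solvent control; IC50 (nM) from 3 data sets.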

LRRK2 (G2019S) = LRRK2 (G2019S) (Homo sapiens, UniProt Q5S007, G2019S); assay: LRRK2 G2019S enzyme inhibition, ADP-Glo kinase assay; format: biochemical; parameters: purchased SignalChem L10-12GG; details: ATP 25 μM
Summary of the method: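 Purified human LRRK2 G2019S (16 ng) with 25 μM ATP and 0.2 μg substrate, 2 h at 25° C. in Tris-HCl pH 7.4, MgCl2, BSA, DTT buffer; compounds at 12 final concentrations, 50 μM down to 0.000001024 μM. ADP-Glo luminescence versus solvent control gave IC50.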

TNF-α = assay: Inhibition of LPS-induced TNF-α secretion of THP-1 monocytes (ELISA); format: cell-based, human; details: Homo sapiens, THP-1; compound 0.5 μM, LPS 500 ng/mL, 24 hours; read-out: THP-1/TNF-α (% inhib)
Description: as §1

TTK = target: T3, TTK (Homo sapiens, UniProt P33981); assay: TTK enzyme inhibition, ADP-Glo kinase assay; format: biochemical; parameters: purchased SignalChem T20-10G; details: ATP 5 μM
T3 sequence (P33981 1-857): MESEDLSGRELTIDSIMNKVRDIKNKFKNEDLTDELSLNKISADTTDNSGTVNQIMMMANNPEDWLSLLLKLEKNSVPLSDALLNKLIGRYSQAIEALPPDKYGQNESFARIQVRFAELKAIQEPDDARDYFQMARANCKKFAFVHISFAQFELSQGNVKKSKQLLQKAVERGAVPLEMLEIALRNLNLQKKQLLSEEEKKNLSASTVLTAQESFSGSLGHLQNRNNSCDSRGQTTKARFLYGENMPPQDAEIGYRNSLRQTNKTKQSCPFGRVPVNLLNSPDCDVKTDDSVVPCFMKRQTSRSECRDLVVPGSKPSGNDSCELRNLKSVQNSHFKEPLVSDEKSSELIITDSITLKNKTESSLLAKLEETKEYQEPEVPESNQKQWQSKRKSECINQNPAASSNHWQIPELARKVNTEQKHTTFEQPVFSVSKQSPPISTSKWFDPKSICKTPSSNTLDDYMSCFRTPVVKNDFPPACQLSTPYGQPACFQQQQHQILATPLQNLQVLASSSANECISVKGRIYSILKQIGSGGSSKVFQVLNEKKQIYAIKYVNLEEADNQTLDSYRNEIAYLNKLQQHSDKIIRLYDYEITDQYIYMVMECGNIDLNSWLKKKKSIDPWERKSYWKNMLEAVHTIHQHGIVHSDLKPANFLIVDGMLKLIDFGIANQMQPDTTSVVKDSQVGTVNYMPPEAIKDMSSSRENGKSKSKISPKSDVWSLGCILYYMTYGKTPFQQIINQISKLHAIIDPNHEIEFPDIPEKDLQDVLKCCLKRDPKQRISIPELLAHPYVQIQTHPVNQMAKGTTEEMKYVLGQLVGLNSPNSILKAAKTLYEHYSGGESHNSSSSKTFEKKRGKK
Description: To evaluate an inhibitory activity of the compound according to the present invention against LRRK2, LRRK2 (G2019S), DYRK1, CLK1, and TTK kinases, experiments were performed as follows.
Each of the Example compounds was reacted with a purified human TTK (SignalChem #T20-10G) enzyme to evaluate an ability to inhibit an enzyme using a method as described below. A composition of 40 mM Tris-HCl (pH 7.4), 20 mM MgCl2, 0.1 mg/mL BSA (a 5× kinase buffer, SignalChem #K03-09), and 50 μM DTT (SignalChem #D86-09B) was used as a reaction buffer, and all reactions of test substances were performed in the reaction buffer. Each of the compounds was diluted […] from a 10 mM DMSO stock using a serial dilution method, and enzyme activities were measured at final compound concentrations of 1, 0.333333, 0.111111, 0.037037, 0.012346, 0.004115, 0.001372, 0.000457, 0.000152, 0.000051, and 0.000017 μM. In the test, purified ATP (5 μM, Promega #V6930) and an MBP enzyme substrate (0.2 μg, SignalChem M42-51N) were reacted with a human TTK (7.5 ng) enzyme at 25° C. for 4 hours, and the enzyme activities were then determined using an in vitro ADP-Glo™ kinase assay (Promega #V6930). An enzyme-activity reaction solution, an ADP-Glo reaction solution, and an enzyme-ability detection solution were reacted at a ratio of 2:2:1 to measure a degree of inhibition of the enzyme activity with luminescence. The degree of inhibition of the enzyme activity according to the treatment concentration of each of the compounds was calculated based on the fluorescence of the enzyme activity of the solvent control which was not treated with the compound. In this case, the concentration of each of the compounds inhibiting 50% of the enzyme activity was determined to be an IC50 (nM) value, and calculated using Prism (Version 8.2 GraphPad) software.

SHP-77 = assay: Inhibition of proliferation of SHP-77 cancer cells (Cell Titer-Glo); format: cell-based; details: Homo sapiens, SHP77, 72 hours
Summary of the method: (§2)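 Cells seeded at 2,000/well and exposed 72 h to 11 concentrations of compound (3-fold dilutions, final 10.000000 down to 0.000169 μM) in DMEM or RPMI. Viability read by Cell Titer-Glo luminescence after 10 min at room temperature; GI50 calculated from luminescence.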

MDA-MB-231 cell line = assay: Inhibition of proliferation of MDA-MB-231 cancer cells (Cell Titer-Glo); format: cell-based; details: Homo sapiens, 72 hours
Summary of the method: as §2

MDA-MB-468 cell line = assay: Inhibition of proliferation of MDA-MB-468 cancer cells (Cell Titer-Glo); format: cell-based; details: Homo sapiens, MDA-MB-468, 72 hours
Summary of the method: as §2

LRRK2, sequence (Q5S007 970-2527 limits assumed): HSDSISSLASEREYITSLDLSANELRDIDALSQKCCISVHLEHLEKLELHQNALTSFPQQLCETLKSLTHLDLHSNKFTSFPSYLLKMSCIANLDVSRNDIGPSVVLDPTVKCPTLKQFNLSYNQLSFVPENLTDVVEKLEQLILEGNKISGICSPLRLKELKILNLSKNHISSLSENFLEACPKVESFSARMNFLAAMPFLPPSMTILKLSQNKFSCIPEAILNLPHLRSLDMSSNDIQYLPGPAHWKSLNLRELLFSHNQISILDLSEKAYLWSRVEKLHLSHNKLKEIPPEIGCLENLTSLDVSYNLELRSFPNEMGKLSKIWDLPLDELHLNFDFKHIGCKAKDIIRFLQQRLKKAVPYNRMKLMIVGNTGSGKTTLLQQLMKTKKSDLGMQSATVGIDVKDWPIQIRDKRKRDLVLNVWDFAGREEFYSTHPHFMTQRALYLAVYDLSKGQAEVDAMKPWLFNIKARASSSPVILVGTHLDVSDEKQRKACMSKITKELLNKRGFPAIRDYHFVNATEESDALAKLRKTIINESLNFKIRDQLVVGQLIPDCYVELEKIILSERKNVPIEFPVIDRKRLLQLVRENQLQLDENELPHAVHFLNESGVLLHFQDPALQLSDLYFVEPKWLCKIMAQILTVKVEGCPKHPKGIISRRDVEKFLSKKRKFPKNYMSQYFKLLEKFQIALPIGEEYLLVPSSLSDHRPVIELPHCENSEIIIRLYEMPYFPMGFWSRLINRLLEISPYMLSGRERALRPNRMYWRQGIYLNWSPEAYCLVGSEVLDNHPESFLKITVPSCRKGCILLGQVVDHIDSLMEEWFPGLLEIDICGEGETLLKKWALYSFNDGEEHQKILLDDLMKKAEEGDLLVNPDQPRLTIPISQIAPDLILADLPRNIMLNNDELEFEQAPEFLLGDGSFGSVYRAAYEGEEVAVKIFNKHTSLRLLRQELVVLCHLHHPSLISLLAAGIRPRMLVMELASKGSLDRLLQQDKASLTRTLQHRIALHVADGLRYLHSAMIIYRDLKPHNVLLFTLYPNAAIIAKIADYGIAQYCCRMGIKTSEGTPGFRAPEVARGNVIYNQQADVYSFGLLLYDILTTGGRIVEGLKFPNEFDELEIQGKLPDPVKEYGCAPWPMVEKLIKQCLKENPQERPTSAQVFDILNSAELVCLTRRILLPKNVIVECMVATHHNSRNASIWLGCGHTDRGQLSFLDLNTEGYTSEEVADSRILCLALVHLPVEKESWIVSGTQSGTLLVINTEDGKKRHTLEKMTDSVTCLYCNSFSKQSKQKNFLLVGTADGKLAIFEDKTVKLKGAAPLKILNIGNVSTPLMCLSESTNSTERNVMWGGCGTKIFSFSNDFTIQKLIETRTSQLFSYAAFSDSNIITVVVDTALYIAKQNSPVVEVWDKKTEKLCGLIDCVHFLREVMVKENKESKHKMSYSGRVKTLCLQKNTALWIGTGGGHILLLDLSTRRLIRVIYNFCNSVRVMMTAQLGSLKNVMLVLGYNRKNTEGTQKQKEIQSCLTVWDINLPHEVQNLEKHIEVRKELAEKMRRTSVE
T2 sequence (P49759 129-484 limits assumed): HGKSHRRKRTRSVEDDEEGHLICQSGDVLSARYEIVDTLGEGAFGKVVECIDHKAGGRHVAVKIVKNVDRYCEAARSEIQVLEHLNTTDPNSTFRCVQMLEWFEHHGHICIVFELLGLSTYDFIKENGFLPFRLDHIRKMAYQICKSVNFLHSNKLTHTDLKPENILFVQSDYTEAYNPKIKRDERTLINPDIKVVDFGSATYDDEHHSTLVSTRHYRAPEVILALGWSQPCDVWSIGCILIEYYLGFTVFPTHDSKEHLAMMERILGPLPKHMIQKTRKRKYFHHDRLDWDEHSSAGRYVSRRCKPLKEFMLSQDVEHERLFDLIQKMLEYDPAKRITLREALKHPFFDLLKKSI
LRRK2 (G2019S), sequence (Q5S007 970-2527 G2019S limits assumed): as the sequence (Q5S007 970-2527 limits assumed) above, with G1050S counted along it

COCCNc1nc(Nc2ccc(C(=O)N3C[C@@H]4C[C@H]3CO4)c3c2OCCO3)nc2[nH]cc(C(F)(F)F)c12 [Example 410, ((LS,4S)-2-oxa-5-azabicyclo[2.2.1]heptan-5-yl)(8-((4-((2-methoxy-ethyl)amino)-5-(trifluoromethyl)-7H-pyrrolo[2,3-d]pyrimidin-2-yl)amino)-2,3-dihydrobenzo[b] [1,4]dioxin-5-yl)methanone]
IC50 (LRRK2): < 100 nM
inhibition at 0.5 µM (IL-6): 17.8%
IC50 (human GST-DYRK1A): < 100 nM
IC50 (human GST-CLK1): < 100 nM

COCCNc1nc(Nc2ccc(C(=O)N3CCC(N4CCOCC4)CC3)c3c2OCCO3)nc2[nH]cc(C(F)(F)F)c12 [Example 366, (8-((4-((2-methoxyethyl)amino)-5-(trifluoromethyl)-7H-pyrrolo[2,3-d]pyrimidin-2-yl)amino)-2,3-dihydrobenzo[b] [1,4]dioxin-5-yl) (4-morpholino-piperidin-1-yl)methanone]
IC50 (LRRK2 (G2019S)): < 100 nM
IC50 (LRRK2): < 100 nM
inhibition at 0.5 µM (TNF-α): 19.2%
inhibition at 0.5 µM (IL-6): 1.1%
IC50 (human GST-DYRK1A): < 100 nM
IC50 (human GST-CLK1): < 100 nM

O=C(c1ccc(Nc2nc(NC3CCOCC3)c3c(C(F)(F)F)c[nH]c3n2)c2c1OCCO2)N1CCN(C2COC2)CC1 [Example 420, (4-(oxetan-3-yl)piperazin-1-yl)(8-((4-((tetrahydro-2H-pyran-4-yl)amino)-5-(trifluoromethyl)-7H-pyrrolo[2,3-d]pyrimidin-2-yl)amino)-2,3-dihydrobenzo[b] [1,4]dioxin-5-yl)methanone]
IC50 (LRRK2): < 100 nM
inhibition at 0.5 µM (TNF-α): 31.6%
inhibition at 0.5 µM (IL-6): 20.2%
IC50 (human GST-DYRK1A): < 100 nM
IC50 (human GST-CLK1): < 100 nM

CC[C@@H](C)Nc1nc(Nc2ccc(S(=O)(=O)N3CCOCC3)cc2OC)nc2[nH]cc(C#N)c12 [Example 67, (R)-4-(sec-butylamino)-2-((2-methoxy-4-(morpholinosulfonyl)phenyl)amino)-7H-pyrrolo[2,3-d]pyrimidine-5-carbonitrile]
IC50 (TTK): < 100 nM
GI50 (SHP-77): < 50 nM
IC50 (human GST-DYRK1A): 301 to 1000 nM
IC50 (human GST-CLK1): 301 to 1000 nM
GI50 (MDA-MB-231 cell line): < 50 nM

CCNc1nc(Nc2ccc(C(=O)N3CCOCC3)c3c2OCO3)nc2[nH]cc(C(F)(F)F)c12 [Example 212, (7-((4-(ethylamino)-5-(trifluoromethyl)-7H-pyrrolo[2,3-d]pyrimidin-2-yl)amino)benzo[d][1,3]dioxol-4-yl)(morpholino)methanone]
IC50 (LRRK2 (G2019S)): < 100 nM
IC50 (LRRK2): < 100 nM
inhibition at 0.5 µM (IL-6): 12.6%
IC50 (human GST-DYRK1A): < 100 nM
IC50 (human GST-CLK1): < 100 nM

CN1CCC(NC(=O)c2ccc(Nc3nc(NC4CCCCC4)c4c(C#N)c[nH]c4n3)c3c2OCCO3)CC1 [Example 143, 8-((5-cyano-4-(cyclohexylamino)-7H-pyrrolo[2,3-d]pyrimidin-2-yl)amino)-N-(1-methylpiperidin-4-yl)-2,3-dihydrobenzo[b][1,4]dioxin-5-carboxamide]
IC50 (TTK): < 100 nM
IC50 (human GST-DYRK1A): 301 to 1000 nM
GI50 (MDA-MB-468 cell line): 51 to 100 nM
IC50 (human GST-CLK1): < 100 nM
GI50 (MDA-MB-231 cell line): 51 to 100 nM

N#Cc1c[nH]c2nc(Nc3ccc(C(=O)N4CCN(C5COC5)CC4)c4c3OCCO4)nc(NC3CCCCC3)c12 [Example 144, 4-(cyclohexylamino)-2-((8-(4-(oxetan-3-yl)piperazine-1-carbonyl)-2,3-dihydrobenzo[b][1,4]dioxin-5-yl)amino)-7H-pyrrolo[2,3-d]pyrimidine-5-carbonitrile]
IC50 (TTK): < 100 nM
IC50 (human GST-DYRK1A): 301 to 1000 nM
GI50 (MDA-MB-468 cell line): 51 to 100 nM
IC50 (human GST-CLK1): 101 to 300 nM
GI50 (MDA-MB-231 cell line): < 50 nM

N#Cc1c[nH]c2nc(Nc3ccc(C(=O)N4CCOCC4)c4c3OCO4)nc(NC3CCCC3)c12 [Example 152, 4-(cyclopentylamino)-2-((7-(morpholine-4-carbonyl)benzo[d][1,3]dioxol-4-yl)amino)-7H-pyrrolo[2,3-d]pyrimidine-5-carbonitrile]
IC50 (TTK): < 100 nM
IC50 (human GST-DYRK1A): 101 to 300 nM
GI50 (MDA-MB-468 cell line): 51 to 100 nM
IC50 (human GST-CLK1): < 100 nM
GI50 (MDA-MB-231 cell line): 51 to 100 nM
